Source: ChEMBL document CHEMBL1136903, “Spiroimidazolidinone NPC1L1 inhibitors. 1: Discovery by 3D-similarity-based virtual screening” (Bioorg Med Chem Lett, 2009)
Active and inactive are the calls of the source. No cut-off for these calls is given here.

Tests used:
[1] = biological target: T1, NPC1-like intracellular cholesterol transporter 1 (Homo sapiens, UniProt Q9UHC9); experiment: Displacement of [35S](2S,3S,4S,5R,6S)-6-(4-((2S,3R)-3-((S)-3-(4-fluorophenyl)-3-hydroxypropyl)-1-(4-(3-(methylsulfonamido)prop-1-ynyl)phenyl)-4-oxoazetidin-2-yl)phenoxy)-3,4,5-trihydroxytetrahydro-2H-pyran-2-carboxylic acid from NPC1L1 in human enterocyte brush border membrane
T1 sequence (Q9UHC9 whole entry): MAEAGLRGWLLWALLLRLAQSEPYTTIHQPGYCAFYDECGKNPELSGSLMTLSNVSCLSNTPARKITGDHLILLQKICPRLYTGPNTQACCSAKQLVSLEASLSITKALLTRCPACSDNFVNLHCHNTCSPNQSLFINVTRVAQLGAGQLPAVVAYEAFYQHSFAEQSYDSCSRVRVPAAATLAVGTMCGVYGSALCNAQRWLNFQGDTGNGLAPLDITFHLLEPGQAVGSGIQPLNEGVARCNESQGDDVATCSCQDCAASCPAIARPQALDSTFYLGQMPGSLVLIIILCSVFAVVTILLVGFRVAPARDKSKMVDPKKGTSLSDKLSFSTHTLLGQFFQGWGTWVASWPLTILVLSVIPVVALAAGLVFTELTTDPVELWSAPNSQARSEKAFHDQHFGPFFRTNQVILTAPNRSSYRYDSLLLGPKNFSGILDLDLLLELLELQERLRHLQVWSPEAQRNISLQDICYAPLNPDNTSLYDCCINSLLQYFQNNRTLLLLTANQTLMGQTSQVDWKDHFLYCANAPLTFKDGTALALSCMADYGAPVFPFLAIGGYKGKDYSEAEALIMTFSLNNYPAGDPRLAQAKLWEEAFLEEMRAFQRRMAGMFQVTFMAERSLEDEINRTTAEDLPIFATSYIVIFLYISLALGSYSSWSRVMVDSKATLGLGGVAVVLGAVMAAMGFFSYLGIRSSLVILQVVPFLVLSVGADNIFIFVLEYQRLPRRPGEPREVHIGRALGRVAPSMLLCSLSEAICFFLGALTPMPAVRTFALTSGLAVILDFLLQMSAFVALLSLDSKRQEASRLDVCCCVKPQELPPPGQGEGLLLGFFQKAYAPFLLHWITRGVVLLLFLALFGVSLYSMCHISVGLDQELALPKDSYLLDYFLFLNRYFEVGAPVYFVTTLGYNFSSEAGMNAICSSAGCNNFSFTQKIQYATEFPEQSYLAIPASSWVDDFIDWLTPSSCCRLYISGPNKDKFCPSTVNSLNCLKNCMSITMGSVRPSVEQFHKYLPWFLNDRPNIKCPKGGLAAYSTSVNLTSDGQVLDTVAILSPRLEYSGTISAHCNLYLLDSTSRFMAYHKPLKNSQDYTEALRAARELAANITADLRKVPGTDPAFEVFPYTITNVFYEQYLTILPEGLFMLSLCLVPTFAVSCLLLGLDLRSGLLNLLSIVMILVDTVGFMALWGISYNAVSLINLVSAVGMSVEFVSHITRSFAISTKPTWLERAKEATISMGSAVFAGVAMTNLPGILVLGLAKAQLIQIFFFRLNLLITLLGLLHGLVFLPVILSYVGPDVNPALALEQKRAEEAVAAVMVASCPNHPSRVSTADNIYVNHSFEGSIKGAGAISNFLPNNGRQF

[2] = biological target: NPC1-like intracellular cholesterol transporter 1 (Rattus norvegicus, UniProt Q6T3U3); experiment: Displacement of [35S](2S,3S,4S,5R,6S)-6-(4-((2S,3R)-3-((S)-3-(4-fluorophenyl)-3-hydroxypropyl)-1-(4-(3-(methylsulfonamido)prop-1-ynyl)phenyl)-4-oxoazetidin-2-yl)phenoxy)-3,4,5-trihydroxytetrahydro-2H-pyran-2-carboxylic acid from NPC1L1 in rat enterocyte brush border membrane
Mus musculus [3] = experiment: Inhibition of liver [3H]cholesterol absorption in C57BL/6 mouse at 0.2 ml in 0.25% methocel suspension, po dosed 30 mins before [3H]cholesterol administration measured after 1.5 to 5 hrs; format: functional, organism-based
Mus musculus [4] = experiment: Inhibition of plasma [3H]cholesterol absorption in C57BL/6 mouse at 0.2 ml in 0.25% methocel suspension, po dosed 30 mins before [3H]cholesterol administration measured after 1.5 to 5 hrs; format: functional, organism-based

NPC1-like intracellular cholesterol transporter 1 (Rattus norvegicus, UniProt Q6T3U3), sequence (Q6T3U3 21-1331 limits assumed): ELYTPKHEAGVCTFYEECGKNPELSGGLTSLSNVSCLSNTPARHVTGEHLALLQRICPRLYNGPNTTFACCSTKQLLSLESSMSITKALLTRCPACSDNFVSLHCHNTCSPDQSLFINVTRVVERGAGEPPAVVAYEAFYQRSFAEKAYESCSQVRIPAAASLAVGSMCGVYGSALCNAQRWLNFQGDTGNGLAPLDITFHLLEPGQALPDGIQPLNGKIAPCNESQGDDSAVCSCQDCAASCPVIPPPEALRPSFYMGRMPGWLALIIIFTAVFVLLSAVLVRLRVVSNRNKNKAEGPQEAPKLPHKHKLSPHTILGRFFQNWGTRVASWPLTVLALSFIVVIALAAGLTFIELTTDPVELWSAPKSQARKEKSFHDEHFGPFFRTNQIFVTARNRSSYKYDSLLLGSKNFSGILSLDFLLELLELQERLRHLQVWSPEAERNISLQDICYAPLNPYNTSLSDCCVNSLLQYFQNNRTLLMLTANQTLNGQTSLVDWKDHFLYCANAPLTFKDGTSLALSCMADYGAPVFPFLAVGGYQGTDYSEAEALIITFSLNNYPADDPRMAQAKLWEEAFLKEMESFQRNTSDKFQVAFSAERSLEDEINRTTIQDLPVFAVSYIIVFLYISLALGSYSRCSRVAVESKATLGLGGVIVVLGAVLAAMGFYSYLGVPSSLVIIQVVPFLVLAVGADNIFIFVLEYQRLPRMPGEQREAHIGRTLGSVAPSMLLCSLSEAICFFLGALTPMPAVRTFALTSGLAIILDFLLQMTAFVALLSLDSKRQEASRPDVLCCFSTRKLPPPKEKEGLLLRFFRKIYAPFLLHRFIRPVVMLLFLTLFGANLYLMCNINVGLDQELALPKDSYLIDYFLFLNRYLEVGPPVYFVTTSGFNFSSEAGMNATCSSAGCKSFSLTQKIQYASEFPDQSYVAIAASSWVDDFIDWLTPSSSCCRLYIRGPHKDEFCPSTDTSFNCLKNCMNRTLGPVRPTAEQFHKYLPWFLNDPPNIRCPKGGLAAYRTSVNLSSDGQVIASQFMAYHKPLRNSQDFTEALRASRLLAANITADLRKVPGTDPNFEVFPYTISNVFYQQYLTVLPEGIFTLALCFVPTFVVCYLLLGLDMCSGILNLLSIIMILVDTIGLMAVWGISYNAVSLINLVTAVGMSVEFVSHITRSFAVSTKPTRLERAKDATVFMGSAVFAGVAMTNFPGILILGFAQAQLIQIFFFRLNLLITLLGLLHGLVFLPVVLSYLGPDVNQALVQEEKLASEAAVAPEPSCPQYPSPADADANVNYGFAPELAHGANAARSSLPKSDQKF

Row | IC50 [1] | IC50 [2] | SMILES | inhibition (Mus musculus [3]) | inhibition (Mus musculus [4])
1 | 20 nM | 0.016 µM | CS(=O)(=O)NCC#CN1C(=O)[C@H](CC[C@H](O)c2ccc(F)cc2)[C@H]1c1ccc(O[C@@H]2O[C@H](C(=O)O)[C@@H](O)[C@H](O)[C@H]2O)cc1 | – | –
2 | 5300 nM | 34 µM | O=C([C@@H]1C[C@@H](c2ccccc2)CN1C(=O)c1ccccc1)N1CCC2(C=Cc3ccccc32)CC1 | – | –
3 | 300 nM | 0.58 µM | O=C(O)[C@H]1O[C@@H](Oc2ccc([C@@H]3[C@@H](CC[C@H](O)c4ccc(F)cc4)C(=O)N3c3ccc(F)cc3)cc2)[C@H](O)[C@@H](O)[C@@H]1O | – | –
4 | 10000 nM | 110 µM | CC(C)(C)c1ccc(C(=O)N2CCC3(CC2)C(=O)N(CC(=O)N2CCCCC2)CN3c2ccccc2)cc1 | inactive | inactive
